Residue numbers refer to the chain shown, from its start. Like-named read-outs stand apart in the source and are kept apart here.
What was measured:
RET (658-1114) = target: T1, RET (658-1114) (Homo sapiens, UniProt P07949); experiment: HiBiT-Degradation, RET wild-type degradation assay (Nano-Glo HiBiT Lytic), 293T.144 cells; assay type: cell-based; conditions: for Emax / DC50: 6.0 hours; for Emax: read-out: 293T.144 RET (658-1114) 6.0 hours (Emax); for DC50: read-out: 293T.144 RET (658-1114) 6.0 hours (DC50)
T1 construct: 658-1114; expressed in transfected cells; host or cells: 293T.144 (293T cells, generated in-house)
T1 sequence (P07949 658-1114): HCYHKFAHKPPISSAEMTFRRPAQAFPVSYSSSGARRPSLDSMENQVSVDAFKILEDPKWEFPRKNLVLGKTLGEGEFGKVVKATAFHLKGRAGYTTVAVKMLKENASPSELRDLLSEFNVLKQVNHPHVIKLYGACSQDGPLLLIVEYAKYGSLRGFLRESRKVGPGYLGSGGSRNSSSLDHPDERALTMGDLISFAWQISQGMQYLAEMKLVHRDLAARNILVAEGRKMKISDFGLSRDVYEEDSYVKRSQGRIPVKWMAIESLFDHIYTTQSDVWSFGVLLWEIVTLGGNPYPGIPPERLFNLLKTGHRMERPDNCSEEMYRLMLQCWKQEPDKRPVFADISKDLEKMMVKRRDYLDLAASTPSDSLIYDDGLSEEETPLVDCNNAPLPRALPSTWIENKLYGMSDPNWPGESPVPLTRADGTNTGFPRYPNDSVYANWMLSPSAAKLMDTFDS
Outline: (§1)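 Degradation quantified by HiBiT lytic luminescence in 293T cells expressing tagged WT or G810R RET kinase domain after 6 h dosing up to 10 μM; DC50 and Emax fitted.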

RET(KD: 658-1114 G810R) = target: T2, RET(KD: 658-1114 G810R) (Homo sapiens, UniProt P07949, G810R); experiment: HiBiT-Degradation, RET G810R degradation assay (Nano-Glo HiBiT Lytic), 293T.165 cells; assay type: cell-based; conditions: for Emax / DC50: 6.0 hours; for Emax: % remaining protein, read-out: 293T.165 RET(KD: 658-1114 G810R) 6.0 hours (Emax); for DC50: read-out: 293T.165 RET(KD: 658-1114 G810R) 6.0 hours (DC50)
T2 construct: 658-1114; expressed in transfected cells; host or cells: 293T.165 (293T cells, generated in-house)
T2 sequence (P07949 658-1114 G810R): T1 sequence (P07949 658-1114) with G153R
Outline: as §1

[1] = half-maximal degradation concentration

SMILES	293T.144 RET (658-1114) 6.0 hours (IP) [nM] (RET (658-1114))	Emax (RET (658-1114); % remaining protein) [%]	DC50 (RET (658-1114); [1]) [nM]	293T.165 RET(KD: 658-1114 G810R) 6.0 hours (IP) [nM] (RET(KD: 658-1114 G810R))	Emax (RET(KD: 658-1114 G810R)) [%]	DC50 (RET(KD: 658-1114 G810R); [1]) [nM]	293T.144 RET (658-1114) 6.0 hours (IP) [nM] (RET (658-1114); HiBiT-Degradation)	DC50 (RET (658-1114); HiBiT-Degradation) [nM]	Emax (RET (658-1114); HiBiT-Degradation) [%]	293T.165 RET(KD: 658-1114 G810R) 6.0 hours (Emax) (RET(KD: 658-1114 G810R); HiBiT-Degradation)	293T.165 RET(KD: 658-1114 G810R) 6.0 hours (IP) [nM] (RET(KD: 658-1114 G810R); HiBiT-Degradation)	DC50 (RET(KD: 658-1114 G810R); HiBiT-Degradation) [nM]
COCC1(Cc2ccccn2)CCN(c2ccc(-c3nc(-c4cnn(C5CCN(C(=O)CC6(O)CCN(c7ccc(NC8CCC(=O)NC8=O)cc7F)CC6)CC5)c4)cn4ncc(C#N)c34)cn2)CC1 (centres unmarked) [Compound 114, 6-[1-[1-[2-[1-[4-[(2,6-dioxo-3-piperidyl)amino]-2-fluoro-phenyl]-4-hydroxy-4-piperidyl]acetyl]-4-piperidyl]pyrazol-4-yl]-4-[6-[4-(methoxymethyl)-4-(2-pyridylmethyl)-1-piperidyl]-3-pyridyl]pyrazolo[1,5-a]pyrazine-3-carbonitrile]	++++ (<50 nM = ++++)	< 30	< 50	++++ (<50 nM = ++++)	< 30	< 50						
CCC1(C(=O)NC(C)(C)C)CCN(c2ccc(-c3nc(-c4cnn([C@H]5CC[C@H](N6CCC(c7ccc(N[C@@H]8CCC(=O)NC8=O)cc7F)CC6)CC5)c4)cn4ncc(C#N)c34)cn2)CC1 (single isomer, unassigned) [Compound 146]	++++ (<50 nM = ++++)	< 30	< 50	++++ (<50 nM = ++++)	< 30	< 50						
N#Cc1cnn2cc(-c3cnn([C@H]4CC[C@@H](N5CCN(c6ccc(NC7CCC(=O)NC7=O)cc6F)CC5)CC4)c3)nc(-c3ccc(N4C[C@H]5COC[C@@H](C4)N5Cc4ccc(F)cn4)nc3)c12 (single isomer, unassigned) [Compound 151]	++++ (<50 nM = ++++)	< 30	< 50	++++ (<50 nM = ++++)	< 30	< 50						
N#Cc1cnn2cc(-c3cnn([C@H]4CC[C@@H](N5CCN(c6ccc(N[C@H]7CCC(=O)NC7=O)cc6F)CC5)CC4)c3)nc(-c3ccc(N4CC5CC(C4)N5C(=O)c4c(F)cccc4F)nc3)c12 (single isomer, unassigned) [Compound 171]	++++ (<50 nM = ++++)	< 30	< 50	++++ (<50 nM = ++++)	< 30	< 50						
CC(C)NC(=O)C1(C)CCN(c2ccc(-c3cc(-c4ccc(N5CCN(C(=O)CN6CCC(c7ccc(NC8CCC(=O)NC8=O)cc7F)CC6)CC5)cc4)cn4ncc(C#N)c34)cn2)CC1 (centres unmarked) [Compound 45, 1-[5-[3-cyano-6-[4-[4-[2-[4-[4-[(2,6-dioxo-3-piperidyl)amino]-2-fluoro-phenyl]-1-piperidyl]acetyl]piperazin-1-yl]phenyl]pyrazolo[1,5-a]pyridin-4-yl]-2-pyridyl]-N-isopropyl-4-methyl-piperidine-4-carboxamide]					< 30	< 100	++++ (< 50 nM = ++++)	< 50	< 30	++++ (< 30% = ++++)	++++ (< 50 nM = ++++)	< 100
